Experiments:
[1] = Phase I cocaine interaction study: heart rate and blood pressure
[2] = test system: dopamine release in the ventral striatum; conditions: animal data, cited from earlier work

CC(C(=O)O)c1cccc(NC(=O)NCC(=O)N2C(C(=O)OC(C)(C)C)CSC2c2ccccc2F)c1 [RPR 102681, (2S)-2-{3-[3-({[(2R,4R)-4-tert-Butoxycarbonyl-2-(2-fluorophenyl)]-3-thiazolidinyl}carbonylmethyl)ureido]phenyl}propionic acid]
elevation of DBP after cocaine ([1]; RPR 800 mg, cocaine 20 mg i.v., P-value=0.093): reduces
elevation of HR after cocaine ([1]; RPR 800 mg, cocaine 40 mg i.v., P-value=0.009): reduces the elevation of HR
elevation of SBP after cocaine ([1]; RPR 102681 200 mg, cocaine 20 mg i.v., P-value=0.031): increased the elevation of SBP
SBP increase in response to cocaine vs placebo group ([1]; cocaine 20 mg, GEE model adjusted for baseline, P-value=0.0412): significantly greater SBP increase
maximum HR/SBP/DBP changes across RPR 102681 dose conditions ([1]; pair-wise comparisons within RPR 102681 group, in general): does not significantly change HR/SBP/DBP
HR/SBP/DBP, RPR 102681 vs placebo groups ([1]; prior to infusions, post saline or post cocaine infusions, any day): no statistical difference
dopamine release in the ventral striatum (microdialysis) ([2]; intraperitoneal administration): stimulates dopamine release
release of dopamine compared to baseline values ([2]; intraperitoneal, highest dose tested 20 mg/Kg): almost tripled

— patent US8592466B2, “Methods for treating conditions caused by higher-than-normal dopaminergic activity in basal ganglia” (Neuropill, Inc., priority 2008, dated 2013)
